{"source": "ChEMBL document CHEMBL5465560", "about": "“Selectivity Literature for EUbOPEN Chemogenomic Library” (2024)", "key": {"[1]": {"molecular_target": "T1, Cytoplasmic tyrosine-protein kinase BMX (Homo sapiens) (UniProt P51813)", "T1 sequence (whole entry)": "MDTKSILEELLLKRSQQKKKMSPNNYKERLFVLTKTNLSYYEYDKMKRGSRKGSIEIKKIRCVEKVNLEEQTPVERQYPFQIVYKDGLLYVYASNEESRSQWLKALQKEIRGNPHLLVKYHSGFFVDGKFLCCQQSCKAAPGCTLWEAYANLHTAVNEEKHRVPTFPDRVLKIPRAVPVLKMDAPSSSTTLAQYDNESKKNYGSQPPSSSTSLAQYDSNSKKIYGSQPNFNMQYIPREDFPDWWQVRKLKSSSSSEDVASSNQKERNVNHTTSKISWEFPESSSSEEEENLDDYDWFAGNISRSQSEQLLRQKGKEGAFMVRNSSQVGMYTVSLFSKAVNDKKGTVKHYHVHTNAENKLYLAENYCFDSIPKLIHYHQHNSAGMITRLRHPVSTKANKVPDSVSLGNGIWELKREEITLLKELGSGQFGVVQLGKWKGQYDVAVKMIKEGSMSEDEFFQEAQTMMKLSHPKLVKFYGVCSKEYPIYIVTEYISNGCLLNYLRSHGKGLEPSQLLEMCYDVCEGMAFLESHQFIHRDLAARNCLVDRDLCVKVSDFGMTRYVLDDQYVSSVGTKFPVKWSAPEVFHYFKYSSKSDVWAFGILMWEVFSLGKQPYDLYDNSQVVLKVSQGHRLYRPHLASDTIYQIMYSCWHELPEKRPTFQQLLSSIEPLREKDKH", "assay": "Selectivity interaction (KinomeScan (DiscoverX)) EUB0000229b BMX", "conditions": "at 10 µM"}, "[2]": {"molecular_target": "Serine/threonine-protein kinase 10 (Homo sapiens) (UniProt O94804)", "sequence (O94804 whole entry, looked up)": "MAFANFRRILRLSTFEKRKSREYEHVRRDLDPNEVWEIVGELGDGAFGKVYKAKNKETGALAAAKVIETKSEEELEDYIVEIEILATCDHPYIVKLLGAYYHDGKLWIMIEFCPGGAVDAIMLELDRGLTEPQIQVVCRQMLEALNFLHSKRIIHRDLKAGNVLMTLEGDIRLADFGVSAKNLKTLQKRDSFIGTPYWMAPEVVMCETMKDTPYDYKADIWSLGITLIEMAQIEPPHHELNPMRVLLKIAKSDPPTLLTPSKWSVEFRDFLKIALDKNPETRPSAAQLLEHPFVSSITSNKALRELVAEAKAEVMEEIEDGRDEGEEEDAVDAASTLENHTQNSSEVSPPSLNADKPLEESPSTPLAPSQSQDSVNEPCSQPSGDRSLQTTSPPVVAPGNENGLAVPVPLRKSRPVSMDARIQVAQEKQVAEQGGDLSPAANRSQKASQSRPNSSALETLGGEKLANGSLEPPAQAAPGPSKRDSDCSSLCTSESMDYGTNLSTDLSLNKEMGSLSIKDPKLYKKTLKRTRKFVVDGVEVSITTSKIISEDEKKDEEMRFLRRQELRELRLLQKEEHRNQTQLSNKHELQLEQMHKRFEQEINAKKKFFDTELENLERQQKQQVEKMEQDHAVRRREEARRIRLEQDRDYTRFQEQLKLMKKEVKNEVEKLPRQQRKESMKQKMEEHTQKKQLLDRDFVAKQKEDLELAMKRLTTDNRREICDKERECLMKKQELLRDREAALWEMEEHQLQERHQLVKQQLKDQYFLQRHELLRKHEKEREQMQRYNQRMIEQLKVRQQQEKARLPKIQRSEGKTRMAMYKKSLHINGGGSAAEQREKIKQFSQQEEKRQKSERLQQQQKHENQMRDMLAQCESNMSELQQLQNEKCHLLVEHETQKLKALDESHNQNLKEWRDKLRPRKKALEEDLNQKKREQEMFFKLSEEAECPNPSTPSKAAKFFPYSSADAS", "assay": "Selectivity interaction (KinomeScan (DiscoverX)) EUB0000655a STK10", "conditions": "at 10 µM"}, "[3]": {"molecular_target": "T2, Receptor-type tyrosine-protein kinase FLT3 (Homo sapiens, UniProt P36888)", "T2 sequence (P36888 whole entry)": "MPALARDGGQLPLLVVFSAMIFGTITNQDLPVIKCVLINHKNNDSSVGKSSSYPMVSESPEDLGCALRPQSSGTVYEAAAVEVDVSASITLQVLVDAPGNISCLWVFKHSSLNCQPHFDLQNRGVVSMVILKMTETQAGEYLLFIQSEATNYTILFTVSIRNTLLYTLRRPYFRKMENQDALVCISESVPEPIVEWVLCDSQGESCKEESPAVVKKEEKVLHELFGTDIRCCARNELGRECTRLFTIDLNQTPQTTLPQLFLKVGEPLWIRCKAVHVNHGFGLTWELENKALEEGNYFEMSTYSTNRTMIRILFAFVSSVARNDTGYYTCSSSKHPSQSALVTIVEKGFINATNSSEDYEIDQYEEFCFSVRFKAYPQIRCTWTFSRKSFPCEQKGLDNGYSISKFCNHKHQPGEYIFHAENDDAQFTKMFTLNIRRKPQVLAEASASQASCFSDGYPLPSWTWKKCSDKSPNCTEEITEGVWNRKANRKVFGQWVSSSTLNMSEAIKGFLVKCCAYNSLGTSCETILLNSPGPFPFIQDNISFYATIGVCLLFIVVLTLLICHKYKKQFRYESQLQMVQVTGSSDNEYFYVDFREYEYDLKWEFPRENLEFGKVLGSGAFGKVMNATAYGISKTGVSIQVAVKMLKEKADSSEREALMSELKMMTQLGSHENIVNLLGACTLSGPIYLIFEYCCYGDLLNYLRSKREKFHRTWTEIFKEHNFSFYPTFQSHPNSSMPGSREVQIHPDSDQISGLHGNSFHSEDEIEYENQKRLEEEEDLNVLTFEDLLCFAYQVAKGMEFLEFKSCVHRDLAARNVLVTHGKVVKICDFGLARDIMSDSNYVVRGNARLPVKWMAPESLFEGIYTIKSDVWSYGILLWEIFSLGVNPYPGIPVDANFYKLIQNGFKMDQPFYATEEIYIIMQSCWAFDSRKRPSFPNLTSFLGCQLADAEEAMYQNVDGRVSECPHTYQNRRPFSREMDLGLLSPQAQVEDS"}, "[4]": {"molecular_target": "Cyclin-dependent kinase 17 (Homo sapiens) (UniProt Q00537)", "sequence (Q00537 whole entry, looked up)": "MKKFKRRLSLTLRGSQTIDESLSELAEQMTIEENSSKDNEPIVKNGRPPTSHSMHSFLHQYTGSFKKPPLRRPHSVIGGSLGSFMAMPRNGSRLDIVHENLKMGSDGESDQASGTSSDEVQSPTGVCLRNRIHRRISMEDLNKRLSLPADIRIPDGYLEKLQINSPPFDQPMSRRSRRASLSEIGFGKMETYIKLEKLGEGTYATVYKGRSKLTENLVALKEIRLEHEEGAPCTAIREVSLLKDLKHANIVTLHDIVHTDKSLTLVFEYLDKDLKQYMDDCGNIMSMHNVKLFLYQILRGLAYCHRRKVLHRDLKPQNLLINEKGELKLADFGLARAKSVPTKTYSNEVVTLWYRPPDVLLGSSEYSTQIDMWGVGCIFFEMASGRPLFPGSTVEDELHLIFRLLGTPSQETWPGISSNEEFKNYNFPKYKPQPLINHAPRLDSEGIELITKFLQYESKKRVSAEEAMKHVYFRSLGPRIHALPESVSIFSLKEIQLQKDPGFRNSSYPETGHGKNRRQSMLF", "assay": "Selectivity interaction (ActivX KiNativ screen (kinase selectivity in THP-1 cell lysates)) EUB0000639a CDK17", "assay_type": "subcellular", "conditions": "lysate, at 5 µM"}, "[5]": {"molecular_target": "Serine/threonine-protein kinase tousled-like 2 (Homo sapiens) (UniProt Q86UE8)", "sequence (Q86UE8 whole entry, looked up)": "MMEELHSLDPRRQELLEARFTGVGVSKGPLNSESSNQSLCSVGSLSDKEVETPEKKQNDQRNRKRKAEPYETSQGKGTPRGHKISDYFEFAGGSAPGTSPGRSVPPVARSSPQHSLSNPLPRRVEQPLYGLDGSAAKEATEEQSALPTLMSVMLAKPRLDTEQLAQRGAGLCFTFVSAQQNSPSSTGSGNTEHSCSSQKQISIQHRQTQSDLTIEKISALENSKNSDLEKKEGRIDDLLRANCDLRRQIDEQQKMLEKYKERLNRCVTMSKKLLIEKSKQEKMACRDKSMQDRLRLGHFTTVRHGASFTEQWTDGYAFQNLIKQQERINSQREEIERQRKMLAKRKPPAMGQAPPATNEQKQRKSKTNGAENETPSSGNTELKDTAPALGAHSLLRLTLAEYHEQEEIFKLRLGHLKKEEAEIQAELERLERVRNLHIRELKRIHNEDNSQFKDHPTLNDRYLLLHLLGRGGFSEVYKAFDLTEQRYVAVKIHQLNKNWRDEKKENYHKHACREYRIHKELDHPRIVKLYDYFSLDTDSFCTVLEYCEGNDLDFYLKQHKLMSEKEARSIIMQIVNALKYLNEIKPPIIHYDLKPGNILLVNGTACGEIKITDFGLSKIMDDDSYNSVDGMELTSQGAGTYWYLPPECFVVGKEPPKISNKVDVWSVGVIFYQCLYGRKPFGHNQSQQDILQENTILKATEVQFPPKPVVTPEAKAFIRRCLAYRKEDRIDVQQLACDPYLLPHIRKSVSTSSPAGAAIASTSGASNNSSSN", "assay": "Selectivity interaction (KinomeScan (DiscoverX)) EUB0000607a TLK2", "conditions": "at 10 µM"}, "[6]": {"tested_on": "T3, Receptor-type tyrosine-protein kinase FLT3 (Homo sapiens), P36888 [D835V]", "T3 sequence (whole entry)": "T2 sequence (P36888 whole entry) with D835V", "assay": "Selectivity interaction (KinomeScan (DiscoverX)) EUB0001049a FLT3", "conditions": "at 1 µM"}, "[7]": {"molecular_target": "Serine/threonine-protein kinase PAK 1 (Homo sapiens) (UniProt Q13153)", "sequence (Q13153 whole entry)": "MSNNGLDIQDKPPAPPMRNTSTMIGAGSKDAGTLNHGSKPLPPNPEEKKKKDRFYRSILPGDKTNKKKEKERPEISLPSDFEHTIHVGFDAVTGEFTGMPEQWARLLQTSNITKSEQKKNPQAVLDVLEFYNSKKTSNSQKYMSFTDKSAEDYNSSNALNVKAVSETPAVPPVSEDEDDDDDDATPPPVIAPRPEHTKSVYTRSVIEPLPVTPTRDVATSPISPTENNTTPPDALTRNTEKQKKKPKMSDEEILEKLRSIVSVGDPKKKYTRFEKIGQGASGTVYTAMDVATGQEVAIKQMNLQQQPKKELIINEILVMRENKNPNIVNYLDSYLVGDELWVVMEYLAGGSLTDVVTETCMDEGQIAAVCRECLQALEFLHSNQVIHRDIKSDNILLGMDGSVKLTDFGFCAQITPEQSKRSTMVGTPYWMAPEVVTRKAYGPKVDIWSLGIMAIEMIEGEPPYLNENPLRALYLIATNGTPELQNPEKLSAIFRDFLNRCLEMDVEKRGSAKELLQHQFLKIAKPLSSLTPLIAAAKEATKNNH", "assay": "Selectivity interaction (KinomeScan (DiscoverX)) EUB0001619a PAK1", "conditions": "at 1 µM"}}, "note": "Where a chain is given by its changes, count along the chain named."}
{"smiles": "COc1cc(N(C)c2ccnc3ccc(C(F)(F)F)cc23)cc(OC)c1OC", "values": [{"measurement": "% binding", "setting": "[1]", "result": 88, "unit": "%"}]}
{"smiles": "CN(C)CCOc1ccc(-c2nc(-c3ccncc3)c(-c3ccc4c(c3)CC/C4=N\\O)[nH]2)cc1", "values": [{"measurement": "% of control", "setting": "[2]", "result": 0.6, "unit": "%"}]}
{"smiles": "CCc1cccc(CC)c1NC(=O)c1nn(C)c2c1CCc1cnc(Nc3ccc(C(=O)NC4CCN(C)CC4)cc3OC(F)(F)F)nc1-2", "values": [{"measurement": "IC50", "setting": "[3]", "result": "> 10", "unit": "µM"}]}
{"smiles": "CC[C@@H]1[C@H](F)C(=O)N[C@@H]1COc1nccc2cc(C(N)=O)c(OC)cc12", "note": "[ZIMLOVISERTIB]", "values": [{"measurement": "% of inhibition", "setting": "[4]", "result": 6.5, "unit": "%"}]}
{"smiles": "CNC(=O)Nc1ccc(-c2nc(N3CC4CCC(C3)O4)c3cnn(C4CCC5(CC4)OCCO5)c3n2)cc1", "values": [{"measurement": "% of control", "setting": "[5]", "result": 100, "unit": "%"}]}
{"smiles": "COc1cc(Nc2nc(C)cc(-c3cnn4nc(OC)ccc34)n2)cc(C(F)(F)F)c1", "values": [{"measurement": "% of control", "setting": "[6]", "result": 86, "unit": "%"}]}
{"smiles": "N#Cc1cccc(-c2c[nH]c3ncnc(N4CCOCC4)c23)c1", "values": [{"measurement": "% of control", "setting": "[7]", "result": 100, "unit": "%"}]}
